According to US20210188905A1, “COMBINING BETA-DIPEPTIDES AND AMINO ACIDS FOR OPTIMAL NUTRITIONAL SUPPLEMENTATION” (Cysal GmbH, priority 2018, published 2021):

What was measured:
[1] = Oral supplementation of healthy volunteers, levels in whole blood by UPLC-MSMS; assay type: in vivo, human
Description: β-Aspartyl-arginine was administered orally either alone or in combination with arginine, and in varying doses. Levels of dipeptide in blood are then monitored over time. The substance used for the experiments is a white powder of β-aspartyl-arginine. The purity is >99% and was determined by HPLC-analysis.
Experimental procedure: The volunteers were three healthy males (age 41 to 51 years, 173-187 cm height, 80-85 kg weight, BMI around 25 kg/m^2). […] The volunteers fasted throughout the experiment. Blood was collected from the fingertip using a lancet device and blotted onto sample cards and levels of dipeptide and amino acids were determined by UPLC-MSMS by an external service provider (Labor Blessing, Singen Germany).

[2] = oral consumption, human use data; cited from earlier work
[3] = molecular target: T1, Arginase (Bovine) (Bos taurus, UniProt Q2KJ64); assay: Hydrolase susceptibility: arginase reaction, HPLC; assay type: in vitro ADME; settings: 500 μg per ml, 100 U arginase, 37° C., pH 9.5, FIG. 5/6
T1 construct: purchased Alexis Bio/Sigma ALX-201-081-C020
T1 sequence (Q2KJ64 1-322): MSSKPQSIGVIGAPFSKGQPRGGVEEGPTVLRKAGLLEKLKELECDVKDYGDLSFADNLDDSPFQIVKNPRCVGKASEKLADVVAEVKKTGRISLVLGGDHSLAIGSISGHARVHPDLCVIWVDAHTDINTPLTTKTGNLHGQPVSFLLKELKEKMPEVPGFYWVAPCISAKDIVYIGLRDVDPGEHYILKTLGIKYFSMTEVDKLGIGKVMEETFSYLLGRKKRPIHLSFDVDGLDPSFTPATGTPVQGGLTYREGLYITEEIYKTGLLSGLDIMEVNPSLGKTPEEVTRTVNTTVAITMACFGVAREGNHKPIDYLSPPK
From the text: The release of free amino acids or modified dipeptide after treatment with these enzymes is monitored by HPLC.

[4] = test system: bovine liver extract (β-aspartyl peptidases); assay: Cleavage of β-aspartyl dipeptide by bovine liver extract, HPLC; assay type: in vitro ADME; settings: 10 mM dipeptide, 37° C.
From the text: β-aspartyl dipeptides contain an isoaspartyl peptide bond instead of the α bond common in proteins. It is therefore resistant to cleavage by most common proteases and peptidases. While this resistance is an advantage in the gut and in the bloodstream as it prevents cleavage before reaching the target tissue, it does raise the question as to how the dipeptide is introduced into the metabolism. Specific cytoplasmic isoaspartases (also known as β-aspartyl peptidases) have been found in mammalian tissues that are capable of cleaving a large variety of β-aspartyl dipeptides and related compounds. Specificity is towards the β-aspartyl moiety, with the identity of the moiety bound to this residue being of little importance. The overall reaction can be summarized as:
The substance used for the experiments is a white powder of β-L-aspartyl-L-arginine. The purity is >99% and was determined by HPLC-analysis.
Bovine liver purchased from a butcher was chosen as a model due to ready availability. Liver (50 g fresh weight) was homogenized using a Waring blender in four times its volume of ice-cold phosphate-buffered saline. Insoluble material was removed by centrifugation for 15 min at 9,000×g at 4° C. The supernatant (liver extract) was used immediately as a test solution.
Test setup: An aliquot of 900 μl of liver extract in a 1.5-ml polypropylene tube was placed into a heat block at 37° C. and allowed to heat up for 10 min. Then, a volume of 100 μl of a solution of 100 mM β-aspartyl-arginine phosphate-buffered saline was added to a give a final concentration of 10 mM. Samples of 100 μl were taken at 0, 1, 2, 3, and 4 h after addition of the dipeptide. Immediately after each sample was taken, it was added to a 1.5-ml screw-cap polypropylene tube containing 100 μl of 10% SDS in water and 700 μl of demineralized water. This tube was immediately heated to 100° C. for 10 min to stop any further enzyme activity. The tube was then cooled to room temperature and 100 μl of 10% KCl solution were added. […] The samples were then diluted appropriately with demineralized water and analyzed by HPLC.

[5] = test system: Proteinase N (Bacillus subtilis); assay: Hydrolase susceptibility: proteinase N, HPLC; assay type: in vitro ADME; settings: 500 μg dipeptide per ml, 28.4 U, 37° C., pH 1-3, 24 h, FIG. 7
Description: (§1) Arginase catalyzes the final step of the urea cycle and converts L-arginine into L-ornithine und urea. The other tested enzymes (proteases) are able to cleave α-peptide bonds involving aspartate and/or arginine. The release of free amino acids or modified dipeptide after treatment with these enzymes is monitored by HPLC. The substance used for the experiments is a white powder of β-L-aspartyl-L-arginine. The purity is >99% and was determined by HPLC-analysis.

[6] = molecular target: T2, Trypsin (Bovine pancreas) (Bos taurus, UniProt P00760); assay: Hydrolase susceptibility: trypsin, HPLC; assay type: in vitro ADME; settings: 500 μg dipeptide per ml, 187.5 U, 25° C., pH 7.6, 24 h, FIG. 7
T2 construct: purchased Sigma T1426-50MG; host or cells: bovine pancreas
T2 sequence (P00760 24-246): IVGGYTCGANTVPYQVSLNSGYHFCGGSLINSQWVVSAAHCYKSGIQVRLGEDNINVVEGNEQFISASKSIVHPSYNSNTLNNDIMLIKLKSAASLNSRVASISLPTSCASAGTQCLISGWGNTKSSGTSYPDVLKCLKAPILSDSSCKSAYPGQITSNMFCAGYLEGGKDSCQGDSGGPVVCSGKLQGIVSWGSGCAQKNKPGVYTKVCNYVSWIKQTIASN
Description: as §1

[7] = molecular target: T3, Chymotrypsin (Bovine pancreas) (Bos taurus, UniProt P00766); assay: Hydrolase susceptibility: chymotrypsin, HPLC; assay type: in vitro ADME; settings: 500 μg dipeptide per ml, 150 U, 30° C., pH 7.8, 24 h, FIG. 7
T3 construct: purchased Applichem A4531; host or cells: bovine pancreas
Description: as §1

[8] = test system: Endoproteinase ArgC (mouse); assay: Hydrolase susceptibility: endoproteinase Arg-C, HPLC; assay type: in vitro ADME; settings: 500 μg dipeptide per ml, 37° C., pH 8.5, 24 h, FIG. 7
Description: as §1

[9] = molecular target: T4, Clostripain (Cl. histolyticum) (Hathewaya histolytica, UniProt P09870); assay: Hydrolase susceptibility: clostripain, HPLC; assay type: in vitro ADME; settings: 500 μg dipeptide per ml, 10 U, 25° C., pH 7.4, 24 h, FIG. 7
T4 construct: purchased Sigma C0888-250UN
T4 sequence (P09870 191-526): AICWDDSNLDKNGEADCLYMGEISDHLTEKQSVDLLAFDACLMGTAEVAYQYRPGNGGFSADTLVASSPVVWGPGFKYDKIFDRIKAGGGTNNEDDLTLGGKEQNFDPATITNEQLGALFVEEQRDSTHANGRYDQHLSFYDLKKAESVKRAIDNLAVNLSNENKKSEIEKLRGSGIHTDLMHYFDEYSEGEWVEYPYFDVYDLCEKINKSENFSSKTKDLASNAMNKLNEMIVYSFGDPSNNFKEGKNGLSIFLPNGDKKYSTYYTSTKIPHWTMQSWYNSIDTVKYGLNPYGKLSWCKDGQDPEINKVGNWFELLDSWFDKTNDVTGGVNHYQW
T4 sequence (P09870 51-181): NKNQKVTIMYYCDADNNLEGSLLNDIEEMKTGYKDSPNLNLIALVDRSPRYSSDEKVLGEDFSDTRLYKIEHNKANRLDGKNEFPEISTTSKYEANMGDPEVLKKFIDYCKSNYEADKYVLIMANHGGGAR
Description: as §1

[10] = test system: rat liver extract; settings: β-aspartyl-glycine as a substrate, Dorer et al.; cited from earlier work
[11] = equimolar oral doses of free arginine (as arginine aspartate salt), FIG. 3

N=C(N)NCCC[C@H](N)C(=O)O [arginine, reference compound]
time for blood concentrations to return to baseline [1, 11]: ≤ 4 h | time of fast increase in blood concentration [1, 11]: two | effect of the 5-g dose on blood concentrations versus 2.5 g ([1]; oral free arginine (as arginine aspartate salt), FIG. 3): did not lead to substantially increased blood concentrations | oral amount beyond which arginine levels in blood do not increase [2]: 2.5 g

N=C(N)NCCC[C@H](NC(=O)C[C@H](N)C(=O)O)C(=O)O [β-aspartyl-arginine, β-L-aspartyl-L-arginine]
hydrolysis by arginase [3]: no significant difference to the start concentration | form in which the orally administered substance is taken up into the bloodstream ([1]; oral): uncleaved dipeptide form | period over which the concentration of the dipeptide in whole blood increased ([1]; oral 2.5 g or 5 g dipeptide in 400 ml water, fasted, three volunteers, FIG. 1): about six | time for which the dipeptide was still detectable in whole blood ([1]; oral 2.5 g or 5 g dipeptide, FIG. 1): 12 h | free arginine in blood after administration of the dipeptide ([1]; oral dipeptide alone): only detected at baseline levels | effect of doubling the oral dose on maximum concentration in whole blood ([1]; oral dose from 2.5 g to 5 g): approximately doubled | cleavage by enzymes present in bovine liver ([4]; 0-4 h): is cleaved | hydrolysis activity of liver extract per protein ([4]; bovine liver extract): 0.065 U/mg protein | hydrolysis activity of liver extract ([4]; smaller timescale experiment, FIG. 8): 2.5 mg of dipeptide being hydrolyzed per gram of liver tissue per hour | change of dipeptide concentration after proteinase N treatment [5]: No significant difference | change of dipeptide concentration after trypsin treatment [6]: No significant difference | change of dipeptide concentration after chymotrypsin treatment [7]: No significant difference | change of dipeptide concentration after endoproteinase Arg-C treatment [8]: No significant difference | change of dipeptide concentration after clostripain treatment [9]: No significant difference

N[C@@H](CC(=O)NCC(=O)O)C(=O)O [β-aspartyl-glycine]
hydrolysis activity of rat liver extract [10]: 0.028 U/mg
